The text below walks through data of PMC13205134, “Design, synthesis, and biological properties exhibited by 1,2,3-triazole based Grp94-selective inhibitors” (European journal of medicinal chemistry, 2025).

Experiment [1] relates to Grp94. The experiment can be described thus: Competitive binding fluorescence polarization (FP) assay, Grp94. Conditions: selectivity over Hsp90α; n.s. = non-selective. On the procedure: The Fluorescence Polarization Assay (FP) was performed in 96-well flat-bottom plates (Santa Cruz Biotechnology) with a final volume of 100 μL per well. […] Each well contained 10 nM of Hsp90α or Grp94 (Enzo Biochem Inc.) and 6 nM of FITC-GDA (fluorescent tracer, stock in DMSO). Compounds were tested in triplicate at final concentrations of 100 μM, 10 μM, 1 μM, 0.1 μM and 0.01 μM with each final concentration containing 1 % DMSO. Each plate included control wells containing: (i) buffer only (background polarization), (ii) protein plus tracer (maximum polarization control), and (iii) tracer only (minimum polarization control). Plates were incubated on a rocker at 4 °C for 24 h.
(Fluorescence polarisation rises when a labelled molecule tumbles more slowly, as on binding a larger partner.)

Experiment [2] concerns the target Hsp90α (Homo sapiens, UniProt P07900). In words: Competitive binding fluorescence polarization (FP) assay, Hsp90α. Conditions: FITC-GDA tracer, mean of triplicates ± SD, read-out: Apparent Kd Hsp90α. The protocol: The Fluorescence Polarization Assay (FP) was performed in 96-well flat-bottom plates (Santa Cruz Biotechnology) with a final volume of 100 μL per well. The assay buffer consisted of 20 mM HEPES, 50 mM KCl, 10.5 mM MgCl2, 20 mM Na2MoO4, 0.01 % NP-40 detergent (NP-40), and pH 7.3 with fresh 2 mM dithiothreitol (DTT) and 0.1 mg/mL bovine γ-globulin (BGG). Each well contained 10 nM of Hsp90α or Grp94 (Enzo Biochem Inc.) and 6 nM of FITC-GDA (fluorescent tracer, stock in DMSO). Compounds were tested in triplicate at final concentrations of 100 μM, 10 μM, 1 μM, 0.1 μM and 0.01 μM with each final concentration containing 1 % DMSO. Each plate included control wells containing: (i) buffer only (background polarization), (ii) protein plus tracer (maximum polarization control), and (iii) tracer only (minimum polarization control). Plates were incubated on a rocker at 4 °C for 24 h. Fluorescence polarization (mP units) was measured at 37 °C using excitation and emission wavelengths of 485 and 528 nm, respectively. Apparent Kd values were determined via calculations from the polarization data obtained at which the tracer was displaced by 50 % by the compounds of interest.
[I50] = concentration of free inhibitor at 50% inhibition, [L50] = concentration of free fluorescence labeled ligand molecule at 50% inhibition, [P0] = concentration of free protein at 0% inhibition, K = dissociation constant of the protein−ligand complex.^4

`COC(=O)c1c(O)cc(O)c(Cl)c1CCn1nncc1Cc1ccc(Cl)cc1` [Compound 32, methyl 3-chloro-2-(2-(5-(4-chlorobenzyl)-1H-1,2,3-triazol-1-yl)ethyl)-4,6-dihydroxybenzoate]: the “Fold selective for Grp94” value in experiment [1] is recorded as 9 fold. Besides, the Kd in experiment [2] was determined as 5.7 ± 0.5 µM.
For `COC(=O)c1c(O)cc(O)c(Cl)c1CCn1nncc1Cc1ccccc1CC(C)C` [Compound 49, methyl 3-chloro-4,6-dihydroxy-2-(2-(5-(2-isobutylbenzyl)-1H-1,2,3-triazol-1-yl)ethyl)benzoate], the “Fold selective for Grp94” value in experiment [1] is on record as 6 fold. In experiment [2], the Kd was determined as 0.92 ± 0.05 µM.
The matching figures for `CCCCc1ccccc1Cc1cnnn1CCc1c(Cl)c(O)cc(O)c1C(=O)OC` [Compound 48, methyl 2-(2-(5-(2-butylbenzyl)-1H-1,2,3-triazol-1-yl)ethyl)-3-chloro-4,6-dihydroxybenzoate]: 78 fold and 6.72 ± 0.15 µM.
For the compound `COC(=O)c1c(O)cc(O)c(Cl)c1CCn1nncc1Cc1ccccc1SC(C)C` [Compound 45, methyl 3-chloro-4,6-dihydroxy-2-(2-(5-(2-(isopropylthio)benzyl)-1H-1,2,3-triazol-1-yl)ethyl)benzoate], the “Fold selective for Grp94” value in experiment [1] amounted to 5 fold. The Kd in experiment [2] came out at 2.06 ± 0.87 µM.
For `CCc1ccc(Cc2cnnn2CCc2c(Cl)c(O)cc(O)c2C(=O)OC)cc1` [Compound 35, methyl 3-chloro-2-(2-(5-(4-ethylbenzyl)-1H-1,2,3-triazol-1-yl)ethyl)-4,6-dihydroxybenzoate] the same measures were “n.s” and 0.81 ± 0.06 µM.
On to `CCCOc1ccccc1Cc1cnnn1CCc1c(Cl)c(O)cc(O)c1C(=O)OC` [Compound 42, methyl 3-chloro-4,6-dihydroxy-2-(2-(5-(2-propoxybenzyl)-1H-1,2,3-triazol-1-yl)ethyl)benzoate], for which, in experiment [1], the “Fold selective for Grp94” value was determined as 30 fold. Besides, the Kd in experiment [2] came out at 2.58 ± 0.36 µM.
For `COC(=O)c1c(O)cc(O)c(Cl)c1CCc1cnnn1Cc1ccccc1` [Compound 10, methyl 2-(2-(1-benzyl-1H-1,2,3-triazol-5-yl)ethyl)-3-chloro-4,6-dihydroxybenzoate], in experiment [1], the “Fold selective for Grp94” value is recorded as “n.s”. Besides, the Kd in experiment [2] came out at 0.62 ± 0.04 µM.
The matching figures for `COC(=O)c1c(O)cc(O)c(Cl)c1CCn1nncc1Cc1ccc(Cl)c(Cl)c1` [Compound 37, methyl 3-chloro-2-(2-(5-(3,4-dichlorobenzyl)-1H-1,2,3-triazol-1-yl)ethyl)-4,6-dihydroxybenzoate]: 5 fold and 6.42 ± 0.45 µM.
In the case of `CCc1ccccc1Cc1cnnn1CCc1c(Cl)c(O)cc(O)c1C(=O)OC` [Compound 46, methyl 3-chloro-2-(2-(5-(2-ethylbenzyl)-1H-1,2,3-triazol-1-yl)ethyl)-4,6-dihydroxybenzoate], the “Fold selective for Grp94” value in experiment [1] turned out to be 12 fold. In addition, the Kd in experiment [2] was 9.22 ± 0.48 µM.
For `COC(=O)c1c(O)cc(O)c(Cl)c1CCn1nncc1Cc1ccc(OC)cc1` [Compound 36, methyl 3-chloro-4,6-dihydroxy-2-(2-(5-(4-methoxybenzyl)-1H-1,2,3-triazol-1-yl)ethyl)benzoate] the same measures were 7 fold and 41.5 ± 7.6 µM.
The matching figures for `COC(=O)c1c(O)cc(O)c(Cl)c1CCn1nncc1Cc1cccc(Cl)c1` [Compound 38, methyl 3-chloro-2-(2-(5-(3-chlorobenzyl)-1H-1,2,3-triazol-1-yl)ethyl)-4,6-dihydroxybenzoate]: 3 fold and 6.33 ± 1.33 µM.
On to `COC(=O)c1c(O)cc(O)c(Cl)c1CCn1nncc1Cc1ccccc1CCC(F)(F)F` [Compound 50, methyl 3-chloro-4,6-dihydroxy-2-(2-(5-(2-(3,3,3-trifluoropropyl)benzyl)-1H-1,2,3-triazol-1-yl)ethyl)benzoate], for which the “Fold selective for Grp94” value in experiment [1] is reported as 70 fold. In experiment [2], the Kd was 4.32 ± 0.39 µM.
On to `CCCSc1ccccc1Cc1cnnn1CCc1c(Cl)c(O)cc(O)c1C(=O)OC` [Compound 44, methyl 3-chloro-4,6-dihydroxy-2-(2-(5-(2-(propylthio)benzyl)-1H-1,2,3-triazol-1-yl)ethyl)benzoate], for which the “Fold selective for Grp94” value in experiment [1] is recorded as 78 fold. Besides, the Kd in experiment [2] was determined as 4.39 ± 0.17 µM.
On to `COC(=O)c1c(O)cc(O)c(Cl)c1CCn1nncc1Cc1ccc(Br)cc1` [Compound 33, methyl 2-(2-(5-(4-bromobenzyl)-1H-1,2,3-triazol-1-yl)ethyl)-3-chloro-4,6-dihydroxybenzoate], for which the “Fold selective for Grp94” value in experiment [1] was found to be 5 fold. For the same compound, the Kd in experiment [2] turned out to be 3.38 ± 0.33 µM.
`COC(=O)c1c(O)cc(O)c(Cl)c1CCn1nncc1Cc1ccccc1` [Compound 14, methyl 2-(2-(5-benzyl-1H-1,2,3-triazol-1-yl)ethyl)-3-chloro-4,6-dihydroxybenzoate]: in experiment [1], the “Fold selective for Grp94” value turned out to be 8 fold. The Kd in experiment [2] is 5.24 ± 0.24 µM.
Regarding `CCOc1cc(Cl)ccc1Cc1cnnn1CCc1c(Cl)c(O)cc(O)c1C(=O)OC` [Compound 41, methyl 3-chloro-2-(2-(5-(4-chloro-2-ethoxybenzyl)-1H-1,2,3-triazol-1-yl)ethyl)-4,6-dihydroxybenzoate], in experiment [1], the “Fold selective for Grp94” value is reported as 12 fold. Also, the Kd in experiment [2] came to 8.9 ± 0.21 µM.
`COC(=O)c1c(O)cc(O)c(Cl)c1CCn1nncc1Cc1ccccc1Cl` [Compound 39, methyl 3-chloro-2-(2-(5-(2-chlorobenzyl)-1H-1,2,3-triazol-1-yl)ethyl)-4,6-dihydroxybenzoate]: in experiment [1], the “Fold selective for Grp94” value was 2 fold. In addition, the Kd in experiment [2] came to 8.32 ± 2.55 µM.
In the case of `COC(=O)c1c(O)cc(O)c(Cl)c1CCn1nnnc1Cc1ccccc1` [Compound 20, methyl 2-(2-(5-benzyl-1H-tetrazol-1-yl)ethyl)-3-chloro-4,6-dihydroxybenzoate], the “Fold selective for Grp94” value in experiment [1] came out at 3 fold. Further, the Kd in experiment [2] was found to be 1.63 ± 0.88 µM.
Regarding `CCOc1ccccc1Cc1cnnn1CCc1c(Cl)c(O)cc(O)c1C(=O)OC` [Compound 40, methyl 3-chloro-2-(2-(5-(2-ethoxybenzyl)-1H-1,2,3-triazol-1-yl)ethyl)-4,6-dihydroxybenzoate], the “Fold selective for Grp94” value in experiment [1] was 30 fold. Besides, the Kd in experiment [2] is 8.92 ± 0.16 µM.
Consider `COC(=O)c1c(O)cc(O)c(Cl)c1CCn1nncc1Cc1ccc(C)cc1` [Compound 34, methyl 3-chloro-4,6-dihydroxy-2-(2-(5-(4-methylbenzyl)-1H-1,2,3-triazol-1-yl)ethyl)benzoate], for which the “Fold selective for Grp94” value in experiment [1] came out at 9 fold. The Kd in experiment [2] is 6.03 ± 0.37 µM.
For `CCSc1ccccc1Cc1cnnn1CCc1c(Cl)c(O)cc(O)c1C(=O)OC` [Compound 43, methyl 3-chloro-2-(2-(5-(2-(ethylthio)benzyl)-1H-1,2,3-triazol-1-yl)ethyl)-4,6-dihydroxybenzoate] the same measures were 43 fold and 8.53 ± 1.05 µM.
Take `COC(=O)c1c(O)cc(O)c(Cl)c1CCn1cc(Cc2ccccc2)nn1` [Compound 16, methyl 2-(2-(4-benzyl-1H-1,2,3-triazol-1-yl)ethyl)-3-chloro-4,6-dihydroxybenzoate]: in experiment [1], the “Fold selective for Grp94” value is “n.s”. In experiment [2], the Kd was found to be 6.79 ± 0.1 µM.
For `COC(=O)c1c(O)cc(O)c(Cl)c1CCn1nncc1Cc1ccc(F)cc1` [Compound 31, methyl 3-chloro-2-(2-(5-(4-fluorobenzyl)-1H-1,2,3-triazol-1-yl)ethyl)-4,6-dihydroxybenzoate], the “Fold selective for Grp94” value in experiment [1] is listed as 2 fold. In addition, the Kd in experiment [2] was found to be 4.72 ± 0.44 µM.
